For 4 compounds, IC50 and viability, T/C results are on record in PubChem BioAssay AID1963963 (Molecular Pharmacology Branch, DTP, NCI, 2024).

Where “and” joins values, the source holds several entries; their conditions need not be identical. Identical values can stand only once.

For this experiment, the system named is 958667-338-R-J2-PDC tumor spheroids viability. Put plainly: Anticancer human tumor 958667-338-R-J2-PDC patient-derived colon adenocarcinoma cell line growth inhibition [PI3K]. As to conditions: spheroids with HUVEC and MSC; for viability, T/C: stronger effect = lower value. The procedure, abridged: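 Stroma-containing spheroids: tumor line, pooled-donor HUVEC, hMSC. Treatments: targeted agents with PI3K inhibitors. Dosing: clinically relevant, half-log spacing, 10 microM ceiling without known Cmax. Read-out: cell viability.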

The mark [1] stands for this setting: curve of first compound, second compound 0.00316 µM.
Setting [2] is: curve of first compound, second compound 0.01 µM.
Setting [3] is: curve of first compound, second compound 0.0316 µM.
Where [4] appears, read: curve of first compound, second compound 0.1 µM.
[5] abbreviates: curve of first compound, second compound 0.316 µM.
Setting [6] is: curve of first compound, second compound 1 µM.
Where [7] appears, read: second compound 0.00316 µM, first compound 0.0316 µM.
Setting [8] is: second compound 0.00316 µM, first compound 0.1 µM.
Setting [9] is: second compound 0.01 µM, first compound 0.0316 µM.
Where [10] appears, read: second compound 0.01 µM, first compound 0.1 µM.
The mark [11] stands for this setting: second compound 0.0316 µM, first compound 0.0316 µM.
The mark [12] stands for this setting: second compound 0.0316 µM, first compound 0.1 µM.
[13] abbreviates: second compound 0.1 µM, first compound 0.0316 µM.
Where [14] appears, read: second compound 0.1 µM, first compound 0.1 µM.
The mark [15] stands for this setting: second compound 0.316 µM, first compound 0.0316 µM.
[16] abbreviates: second compound 0.316 µM, first compound 0.1 µM.
Setting [17] is: second compound 1 µM, first compound 0.0316 µM.
Setting [18] is: second compound 1 µM, first compound 0.1 µM.
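Further: spheroids exposed to compounds for seven days before readout.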

By IC50 is commonly meant the concentration that inhibits the measured activity by half. As a reminder, the viability, T/C is the ratio of treated to control. In the case of `Cn1ncc(Cl)c1-c1cc(C(=O)NC(CN)Cc2cccc(F)c2)sc1Cl` (centres undefined) + COc1c(OCCCN2CCOCC2)ccc2c3n(c(=NC(=O)c4cnc(N)nc4)nc12)CCN3, the IC50 runs as follows: under setting [1], 3.41 µM; under setting [2], 3.24 µM; under setting [3], 1.7 µM; under setting [4], 0.696 µM; under setting [5], under 0.0316 µM; under setting [6], under 0.0316 µM. Besides, the viability, T/C runs as follows: under setting [7], 89.1%; under setting [8], 109%; (second compound 0.00316 µM, first compound 0.316 µM) 75.5%; (second compound 0.00316 µM, first compound 1 µM) 76.2%; (second compound 0.00316 µM, first compound 3.16 µM) 46.4%; (second compound 0.00316 µM, first compound 10 µM) 43%. Further, the viability, T/C by setting is: under setting [9], 88.9%; under setting [10], 76.7%; (second compound 0.01 µM, first compound 0.316 µM) 87.8%; (second compound 0.01 µM, first compound 1 µM) 75.5%; (second compound 0.01 µM, first compound 3.16 µM) 50.6%; (second compound 0.01 µM, first compound 10 µM) 32%. The viability, T/C under setting [11] is 90.3%; the viability, T/C under setting [12] is 74.6%; the viability, T/C (second compound 0.0316 µM, first compound 0.316 µM) was 76.2%; the viability, T/C (second compound 0.0316 µM, first compound 1 µM) is 58.6%; the viability, T/C (second compound 0.0316 µM, first compound 3.16 µM) is 38.9%; the viability, T/C (second compound 0.0316 µM, first compound 10 µM) was 26.5%. Further, the viability, T/C was 59.4% under setting [13]; 65.7% under setting [14]; 64.5% (second compound 0.1 µM, first compound 0.316 µM); 43.5% (second compound 0.1 µM, first compound 1 µM); 27.9% (second compound 0.1 µM, first compound 3.16 µM); 21.1% (second compound 0.1 µM, first compound 10 µM). Further, the viability, T/C runs as follows: under setting [15], 44.9%; under setting [16], 38.8%; (second compound 0.316 µM, first compound 0.316 µM) 32.9%; (second compound 0.316 µM, first compound 1 µM) 31.6%; (second compound 0.316 µM, first compound 3.16 µM) 21.1%; (second compound 0.316 µM, first compound 10 µM) 14.1%. The viability, T/C is 20.8% under setting [17]; 18.2% under setting [18]; 19.9% (second compound 1 µM, first compound 0.316 µM); 20.5% (second compound 1 µM, first compound 1 µM); 15.9% (second compound 1 µM, first compound 3.16 µM); 12.5% (second compound 1 µM, first compound 10 µM).

With `CC1(C)CCC(CN2CCN(c3ccc(C(=O)NS(=O)(=O)c4ccc(NCC5CCOCC5)c([N+](=O)[O-])c4)c(Oc4cnc5[nH]ccc5c4)c3)CC2)=C(c2ccc(Cl)cc2)C1`, the viability, T/C runs as follows: (compound 0.316 µM) 106% [middle of 4 runs]; (compound 1 µM) 109% (2×) and 87% and 112%; (compound 3.16 µM) 98.7% [middle of 4 runs]. The IC50 (curve of compound) was > 10 µM and 6.88 µM and 6.97 µM.

Turning to `CC(C)n1nc(-c2ccc3oc(N)nc3c2)c2c(N)ncnc21` + COc1c(OCCCN2CCOCC2)ccc2c3n(c(=NC(=O)c4cnc(N)nc4)nc12)CCN3, the IC50 by setting is: under setting [1], 0.0778 µM; under setting [2], 0.0609 µM; under setting [3], 0.0228 µM; under setting [4], 0.00988 µM; under setting [5], under 0.000316 µM; under setting [6], under 0.000316 µM. The viability, T/C is 88.1% (second compound 0.00316 µM, first compound 0.000316 µM); 112% (second compound 0.00316 µM, first compound 0.001 µM); 99.2% (second compound 0.00316 µM, first compound 0.00316 µM); 103% (second compound 0.00316 µM, first compound 0.01 µM); 77.4% under setting [7]; 42.4% under setting [8]. The viability, T/C was 73.6% (second compound 0.01 µM, first compound 0.000316 µM); 70% (second compound 0.01 µM, first compound 0.001 µM); 85.2% (second compound 0.01 µM, first compound 0.00316 µM); 71.6% (second compound 0.01 µM, first compound 0.01 µM); 74.7% under setting [9]; 31.3% under setting [10]. Also, the viability, T/C (second compound 0.0316 µM, first compound 0.000316 µM) was 69.6%; the viability, T/C (second compound 0.0316 µM, first compound 0.001 µM) was 74.5%; the viability, T/C (second compound 0.0316 µM, first compound 0.00316 µM) was 70%; the viability, T/C (second compound 0.0316 µM, first compound 0.01 µM) is 58.1%; the viability, T/C under setting [11] was 47%; the viability, T/C under setting [12] was 25.2%. In addition, the viability, T/C (second compound 0.1 µM, first compound 0.000316 µM) is 67.3%; the viability, T/C (second compound 0.1 µM, first compound 0.001 µM) was 66.1%; the viability, T/C (second compound 0.1 µM, first compound 0.00316 µM) was 62%; the viability, T/C (second compound 0.1 µM, first compound 0.01 µM) was 44.2%; the viability, T/C under setting [13] is 41%; the viability, T/C under setting [14] was 21.3%. Also, the viability, T/C reads like this: (second compound 0.316 µM, first compound 0.000316 µM) 41.4%; (second compound 0.316 µM, first compound 0.001 µM) 37%; (second compound 0.316 µM, first compound 0.00316 µM) 34.7%; (second compound 0.316 µM, first compound 0.01 µM) 33.1%; under setting [15], 25.1%; under setting [16], 14.7%. Further, the viability, T/C runs as follows: (second compound 1 µM, first compound 0.000316 µM) 17.2%; (second compound 1 µM, first compound 0.001 µM) 16.5%; (second compound 1 µM, first compound 0.00316 µM) 13.6%; (second compound 1 µM, first compound 0.01 µM) 17.5%; under setting [17], 15.8%; under setting [18], 11.5%.

As to `COc1c(OCCCN2CCOCC2)ccc2c3n(c(=NC(=O)c4cnc(N)nc4)nc12)CCN3`, the viability, T/C (compound 0.00316 µM) is 92.6% [middle of 8 runs]; the viability, T/C (compound 0.0316 µM) is 71.9% [middle of 8 runs]; the viability, T/C (compound 0.1 µM) is 54% [middle of 8 runs]; the viability, T/C (compound 0.316 µM) is 38.8% [middle of 8 runs]; the viability, T/C (compound 1 µM) was 18.2% [middle of 8 runs]. Moreover, the IC50 (compound alone, run of 06/13/2023) is 147 nM [middle of 8 runs].
